Experimental data as given in patent US20140100290A1, “Method of treating a prostate condition” (priority 2012, published 2014).
Where two headings read alike, the source gives them in different places.

Key:
LNCaP cells [1] = experiment: Phosphatidylserine externalization by fluorescence microscopy (PSVue 480) in LNCaP cells; format: cell-based, Human; details: 10 μM and 1000 μM, 48 hours, dose-dependent
Description: (§1) Human metastatic prostate cancer cells, LNCaP, were obtained from ATCC (Manassas, Va., USA). Cells were grown in RPMI-1640 medium supplemented with 2mM glutamine, 10% FBS, 100 U/mL penicillin, and 100 μg/mL streptomycin. LNCaP cells were maintained in a humidified atmosphere of 5% CO2 at 37° C. in T-75 flasks and were subcultured when confluent. Experiments were conducted using cells with passage numbers ranging from 5-20.
One of the earliest events to occur in apoptosis or programmed cell death is the externalization of phosphatidylserine (PS), a membrane phospholipid restricted to the inner leaflet of the lipid bilayer. Redistribution of PS from the inner leaflet to the outer leaflet occurs in cells undergoing apoptosis. The PSVue™ 480 reagent kit was used to perform the phosphatidylserine (PS) externalization assay. The principle behind this assay involves a strong binding of PSVue™ 480 (fluorescent probe) to the anionic PS residues exposed on the surface of the apoptotic cells by its Zn (II)-dipicolylamine (Zn-DPA) functionality, making it a useful apoptotic sensor.
To detect PS externalization, LNCaP cells were seeded as 0.5×10^6 cells/well in flat-bottom, 6-well microtiter plates. After 24 hours of incubation at 37° C., cells were treated with 10 μM and 1000 μM of carvacrol for 48 hours. […]

PC-3 cells = experiment: Phosphatidylserine externalization by fluorescence microscopy (PSVue 480) in PC-3 cells; format: cell-based, Human; details: 10 μM and 1000 μM, 48 hours, dose-dependent
Description: Cell Line and Culture Conditions • Human metastatic, androgen insensitive prostate cancer cells, PC-3, were obtained from ATCC (Manassas, Va., USA). Cells were grown in F-12K medium supplemented with 2 mM glutamine, 10% FBS, 100 U/mL penicillin, and 100 μg/mL streptomycin. PC-3 cells were maintained in a humidified atmosphere of 5% CO2 at 37° C. in T-75 flasks and were subcultured when confluent.
One of the earliest events to occur in apoptosis or programmed cell death is externalization of phosphatidylserine (PS), a membrane phospholipid restricted to the inner leaflet of the lipid bilayer. Redistribution of PS from inner leaflet of plasma membrane lipid bilayer to the outer leaflet occurs in cells undergoing apoptosis. The PSVue™ 480 reagent kit was used to perform the phosphatidylserine (PS) externalization assay. The principle behind this assay involves a strong binding of PSVue™ 480 (fluorescent probe) to the anionic PS residues exposed on the surface of apoptotic cells by its Zn (II)-dipicolylamine (Zn-DPA) functionality, making it a useful apoptotic sensor.
To detect PS externalization, PC-3 cells were seeded at a density of 0.5×10^6 cells/well in flat-bottom, 6-well microtiter plates and were allowed to incubate for 24 h. After 24 h of incubation at 37° C., cells were treated with 10 μM and 1000 μM of carvacrol for 48 h. […]

LNCaP cells [2] = experiment: XTT cell proliferation (cell viability) assay in LNCaP cells; format: cell-based; details: Homo sapiens, mean±S.E.M., read-out: IC50 (anti-proliferative activity, XTT)
Description: as §1
The anti-proliferative effect of carvacrol was assessed in human metastatic prostate cancer cells, LNCaP, using the XTT cell proliferation assay. This assay is a colorimetric assay that detects cellular metabolic activities. In this assay, the second generation tetrazolium dye XTT (2,3-bis (2-methoxy-4-nitiro-5-sulfophenyl)-5-[(phenylamino)-carbonyl]-2H tetrazolium hydroxide), is reduced to a soluble, brightly orange colored formazan derivative. To improve the sensitivity of XTT assay, PMS (N-methyl dibenzopyrazine methyl sulfate), an intermediate electron carrier is used. This color change is accomplished by breaking apart the positively charged quaternary tetrazole ring. Mitochondrial oxidoreductases present in viable cells are thought to contribute substantially to the XTT response with their reductants being transferred to the plasma membrane.
LNCaP cells at the density of 10,000 cells/well were seeded into flat-bottom, 96-well microtiter plates (100 μL/well) and allowed to attach and grow for 24 hours, the cells were then treated with 0.1 μM, 1 μM, 10 μM, 100 μM, 1000 μM, and 3000 μM of carvacrol for 24, 48, and 96 hours. […] After incubation, an orange colored formazan product was formed and the absorbance was read at 475 nm using BioTek microplate reader. […] Cell viability of the drug-treated cells was calculated as a fraction of solvent control and the anti-proliferative activity of carvacrol was expressed in terms in IC50 valuesIC50 values of carvacrol were calculated using GraphPad Prism 4 (GraphPad Software Inc., Calif., USA), and are expressed as the means of ±S.E.M> of n≧4 experiments, with triplicate determinations in each experiment. […]

SMILES: Cc1ccc(C(C)C)cc1O [Carvacrol]
- externalization of phosphatidylserine residues (PSVue 480 positive cells) (LNCaP cells [1]): showed externalization of phosphatidylserine residues
- externalization of phosphatidylserine residues (PSVue 480 positive cells) (PC-3 cells): showed externalization of phosphatidylserine residues
- IC50 (LNCaP cells [2]; 24 hours treatment): 1670 ± 179 µM
- IC50 (LNCaP cells [2]; 48 hours treatment): 269 ± 58 µM
- IC50 (LNCaP cells [2]; 96 hours treatment): 13.7 ± 4.42 µM
